Patent publication US20130303509A1, “NAMPT INHIBITORS” (AbbVie Inc., priority 2012, published 2013)
pIC50: −log10 of the molar value.

These molecules were tested on PC3 cells (assay: NAMPT Cell Proliferation Assay). Details: Homo sapiens, PC-3, 120 h, 5 days incubation, cell viability by Cell Titer Glo.
Assay type: cell-based
Summary of the method: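 Seeded at 500 cells/well in RPMI with 10% heat-inactivated FBS and left to attach overnight at 37° C, 5% CO2. Compounds were added as 10-fold dilutions […] for 5 days, then viability was read by CellTiter-Glo. IC50s came from sigmoidal fits of percent inhibition.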

pIC50 | Structure (SMILES)
8.24 | O=C(Nc1ccc(C2CCN(C(=O)CCC(F)(F)F)CC2)cc1)C1CN(c2cccnn2)C1 [Example 433, 1-(pyridazin-3-yl)-N-{4-[1-(4,4,4-trifluorobutanoyl)piperidin-4-yl]phenyl}azetidine-3-carboxamide]
8.20 | Cc1ccc(C(=O)N2CCC(c3ccc(NC(=O)C4CN(c5cccnn5)C4)cc3)CC2)cn1 [Example 434, N-(4-{1-[(6-methylpyridin-3-yl)carbonyl]piperidin-4-yl}phenyl)-1-(pyridazin-3-yl)azetidine-3-carboxamide]
9.52 | O=C(Nc1ccc(C2CCN(C(=O)c3ccccc3)CC2)cc1)C1CN(c2cccnn2)C1 [Example 435, N-[4-(1-benzoylpiperidin-4-yl)phenyl]-1-(pyridazin-3-yl)azetidine-3-carboxamide]
9.17 | O=C(Nc1ccc(C2CCN(C(=O)c3ccco3)CC2)cc1)C1CN(c2cccnn2)C1 [Example 436, N-{4-[1-(furan-2-ylcarbonyl)piperidin-4-yl]phenyl}-1-(pyridazin-3-yl)azetidine-3-carboxamide]
9.01 | CC1(C(=O)N2CCC(c3ccc(NC(=O)C4CN(c5cccnn5)C4)cc3)CC2)CCCCC1 [Example 437, N-(4-{1-[(1-methylcyclohexyl)carbonyl]piperidin-4-yl}phenyl)-1-(pyridazin-3-yl)azetidine-3-carboxamide]
8.71 | CC(=O)C(=O)N1CCC(c2ccc(NC(=O)C3CN(c4cccnn4)C3)cc2)CC1 [Example 438, N-{4-[1-(2-oxopropanoyl)piperidin-4-yl]phenyl}-1-(pyridazin-3-yl)azetidine-3-carboxamide]
8.47 | O=C(Nc1ccc(C2CCN(C(=O)C3CCCC3)CC2)cc1)C1CN(c2cccnn2)C1 [Example 439, N-{4-[1-(cyclopentylcarbonyl)piperidin-4-yl]phenyl}-1-(pyridazin-3-yl)azetidine-3-carboxamide]
8.74 | CCC(=O)N1CCC(c2ccc(NC(=O)C3CN(c4cccnn4)C3)cc2)CC1 [Example 440, N-[4-(1-propanoylpiperidin-4-yl)phenyl]-1-(pyridazin-3-yl)azetidine-3-carboxamide]
8.17 | Cc1ccc(C(=O)N2CCC(c3ccc(NC(=O)C4CN(c5cccnn5)C4)cc3)CC2)cc1 [Example 441, N-{4-[1-(4-methylbenzoyl)piperidin-4-yl]phenyl}-1-(pyridazin-3-yl)azetidine-3-carboxamide]
8.20 | O=C(Nc1ccc(O[C@@H]2CCN(C(=O)c3ccccc3Cl)C2)cc1)C1CN(c2ccnnc2)C1 [Example 442, N-(4-{[(3R)-1-(2-chlorobenzoyl)pyrrolidin-3-yl]oxy}phenyl)-1-(pyridazin-4-yl)azetidine-3-carboxamide]
8.25 | O=C(Nc1ccc(O[C@@H]2CCN(C(=O)c3nccs3)C2)cc1)C1CN(c2ccnnc2)C1 [Example 443, 1-(pyridazin-4-yl)-N-(4-{[(3R)-1-(1,3-thiazol-2-ylcarbonyl)pyrrolidin-3-yl]oxy}phenyl)azetidine-3-carboxamide]
7.11 | O=C(Nc1ccc(O[C@@H]2CCN(C(=O)CC3CC3)C2)cc1)C1CN(c2ccnnc2)C1 [Example 444, N-(4-{[(3R)-1-(cyclopropylacetyl)pyrrolidin-3-yl]oxy}phenyl)-1-(pyridazin-4-yl)azetidine-3-carboxamide]
7.72 | CC[C@H](C)C(=O)N1CC[C@@H](Oc2ccc(NC(=O)C3CN(c4ccnnc4)C3)cc2)C1 [Example 445, N-[4-({(3R)-1-[(2S)-2-methylbutanoyl]pyrrolidin-3-yl}oxy)phenyl]-1-(pyridazin-4-yl)azetidine-3-carboxamide]
6.97 | O=C(Nc1ccc(O[C@@H]2CCN(C(=O)C3CCOCC3)C2)cc1)C1CN(c2ccnnc2)C1 [Example 446, 1-(pyridazin-4-yl)-N-(4-{[(3R)-1-(tetrahydro-2H-pyran-4-ylcarbonyl)pyrrolidin-3-yl]oxy}phenyl)azetidine-3-carboxamide]
6.04 | O=C(Nc1ccc(O[C@@H]2CCN(C(=O)Cc3ccc(OC(F)(F)F)cc3)C2)cc1)C1CN(c2ccnnc2)C1 [Example 447, 1-(pyridazin-4-yl)-N-(4-{[(3R)-1-{[4-(trifluoromethoxy)phenyl]acetyl}pyrrolidin-3-yl]oxy}phenyl)azetidine-3-carboxamide]
8.03 | O=C(Nc1ccc(O[C@@H]2CCN(C(=O)c3ccsc3)C2)cc1)C1CN(c2ccnnc2)C1 [Example 448, 1-(pyridazin-4-yl)-N-(4-{[(3R)-1-(thiophen-3-ylcarbonyl)pyrrolidin-3-yl]oxy}phenyl)azetidine-3-carboxamide]
6.17 | O=C(Nc1ccc(O[C@@H]2CCN(C(=O)Cc3ccc(F)cc3)C2)cc1)C1CN(c2ccnnc2)C1 [Example 449, N-[4-({(3R)-1-[(4-fluorophenyl)acetyl]pyrrolidin-3-yl}oxy)phenyl]-1-(pyridazin-4-yl)azetidine-3-carboxamide]

pIC50 | Structure (SMILES)
7.29 | O=C(Nc1ccc(O[C@@H]2CCN(C(=O)Cc3cc(F)cc(F)c3)C2)cc1)C1CN(c2ccnnc2)C1 [Example 450, N-[4-({(3R)-1-[(3,5-difluorophenyl)acetyl]pyrrolidin-3-yl}oxy)phenyl]-1-(pyridazin-4-yl)azetidine-3-carboxamide]
7.06 | O=C(Nc1ccc(O[C@@H]2CCN(C(=O)c3ccc(F)c(F)c3)C2)cc1)C1CN(c2ccnnc2)C1 [Example 451, N-(4-{[(3R)-1-(3,4-difluorobenzoyl)pyrrolidin-3-yl]oxy}phenyl)-1-(pyridazin-4-yl)azetidine-3-carboxamide]
7.20 | O=C(Nc1ccc(O[C@@H]2CCN(C(=O)Cc3cccc(F)c3)C2)cc1)C1CN(c2ccnnc2)C1 [Example 452, N-[4-({(3R)-1-[(3-fluorophenyl)acetyl]pyrrolidin-3-yl}oxy)phenyl]-1-(pyridazin-4-yl)azetidine-3-carboxamide]
6.98 | O=C(Nc1ccc(O[C@@H]2CCN(C(=O)c3cccc(C(F)(F)F)c3)C2)cc1)C1CN(c2ccnnc2)C1 [Example 453, 1-(pyridazin-4-yl)-N-[4-({(3R)-1-[3-(trifluoromethyl)benzoyl]pyrrolidin-3-yl}oxy)phenyl]azetidine-3-carboxamide]
6.97 | O=C(Nc1ccc(O[C@@H]2CCN(C(=O)Cc3ccc(F)cc3F)C2)cc1)C1CN(c2ccnnc2)C1 [Example 454, N-[4-({(3R)-1-[(2,4-difluorophenyl)acetyl]pyrrolidin-3-yl}oxy)phenyl]-1-(pyridazin-4-yl)azetidine-3-carboxamide]
6.34 | O=C(Nc1ccc(O[C@@H]2CCN(C(=O)Cc3ccc(C(F)(F)F)cc3)C2)cc1)C1CN(c2ccnnc2)C1 [Example 455, 1-(pyridazin-4-yl)-N-(4-{[(3R)-1-{[4-(trifluoromethyl)phenyl]acetyl}pyrrolidin-3-yl]oxy}phenyl)azetidine-3-carboxamide]
7.40 | O=C(Nc1ccc(O[C@@H]2CCN(C(=O)c3cscn3)C2)cc1)C1CN(c2ccnnc2)C1 [Example 456, 1-(pyridazin-4-yl)-N-(4-{[(3R)-1-(1,3-thiazol-4-ylcarbonyl)pyrrolidin-3-yl]oxy}phenyl)azetidine-3-carboxamide]
6.85 | O=C(Nc1ccc(O[C@@H]2CCN(C(=O)C3CCCO3)C2)cc1)C1CN(c2ccnnc2)C1 (stereo partly drawn) [Example 457, 1-(pyridazin-4-yl)-N-(4-{[(3R)-1-(tetrahydrofuran-2-ylcarbonyl)pyrrolidin-3-yl]oxy}phenyl)azetidine-3-carboxamide]
7.19 | Cc1ccc(C(=O)N2CC[C@@H](Oc3ccc(NC(=O)C4CN(c5ccnnc5)C4)cc3)C2)s1 [Example 458, N-[4-({(3R)-1-[(5-methylthiophen-2-yl)carbonyl]pyrrolidin-3-yl}oxy)phenyl]-1-(pyridazin-4-yl)azetidine-3-carboxamide]
7.43 | O=C(Nc1ccc(O[C@@H]2CCN(C(=O)Cc3ccccc3F)C2)cc1)C1CN(c2ccnnc2)C1 [Example 459, N-[4-({(3R)-1-[(2-fluorophenyl)acetyl]pyrrolidin-3-yl}oxy)phenyl]-1-(pyridazin-4-yl)azetidine-3-carboxamide]
6.65 | O=C(Nc1ccc(O[C@@H]2CCN(C(=O)C3CC3)C2)cc1)C1CN(c2ccnnc2)C1 [Example 460, N-(4-{[(3R)-1-(cyclopropylcarbonyl)pyrrolidin-3-yl]oxy}phenyl)-1-(pyridazin-4-yl)azetidine-3-carboxamide]
6.19 | O=C(Nc1ccc(O[C@@H]2CCN(C(=O)C3CCOC3)C2)cc1)C1CN(c2ccnnc2)C1 (stereo partly drawn) [Example 461, 1-(pyridazin-4-yl)-N-(4-{[(3R)-1-(tetrahydrofuran-3-ylcarbonyl)pyrrolidin-3-yl]oxy}phenyl)azetidine-3-carboxamide]
6.67 | O=C(Nc1ccc(O[C@@H]2CCN(C(=O)c3cccc(OC(F)(F)F)c3)C2)cc1)C1CN(c2ccnnc2)C1 [Example 462, 1-(pyridazin-4-yl)-N-[4-({(3R)-1-[3-(trifluoromethoxy)benzoyl]pyrrolidin-3-yl}oxy)phenyl]azetidine-3-carboxamide]
7.15 | O=C(Nc1ccc(O[C@@H]2CCN(C(=O)c3ccccn3)C2)cc1)C1CN(c2ccnnc2)C1 [Example 463, 1-(pyridazin-4-yl)-N-(4-{[(3R)-1-(pyridin-2-ylcarbonyl)pyrrolidin-3-yl]oxy}phenyl)azetidine-3-carboxamide]
7.18 | O=C(Nc1ccc(O[C@@H]2CCN(C(=O)c3cccc(Cl)c3)C2)cc1)C1CN(c2ccnnc2)C1 [Example 464, N-(4-{[(3R)-1-(3-chlorobenzoyl)pyrrolidin-3-yl]oxy}phenyl)-1-(pyridazin-4-yl)azetidine-3-carboxamide]
6.21 | O=C(Nc1ccc(O[C@@H]2CCN(C(=O)c3ccc(Cl)cc3)C2)cc1)C1CN(c2ccnnc2)C1 [Example 465, N-(4-{[(3R)-1-(4-chlorobenzoyl)pyrrolidin-3-yl]oxy}phenyl)-1-(pyridazin-4-yl)azetidine-3-carboxamide]
